Results taken from paper PMC5053523, “In Vitro Antibacterial Activity of Rhodanine Derivatives against Pathogenic Clinical Isolates” (PLoS ONE, 2016).
In brackets after ≈: the same amount, converted by molar mass. Where two headings read alike, the source gives them in different places.

Experiments:
[1] = tested on: vancomycin resistant enterococci (VRE) E. faecium; assay: Broth microdilution MIC/MBC, VRE E. faecium; format: cell-based; conditions: for MIC: read-out: MIC
[2] = tested on: methicillin-resistant Staphylococcus aureus (MRSA); assay: Broth microdilution MIC/MBC, MRSA; format: cell-based
B. cereus = assay: Broth microdilution MIC/MBC, B. cereus; format: cell-based; conditions: Bacillus cereus; for MBC: read-out: MBC; for MIC: read-out: MIC
Text: The broth microdilution technique was used, followed by subculturing on agar plates that were rhodanine—free.

Bacillus Strains = assay: Broth microdilution MIC50/MIC90 and MIC range, Bacillus strains panel; format: cell-based, Bacillus spp.; conditions: 10 Bacillus strains
Text: The broth microdilution technique was used, followed by subculturing on agar plates that were rhodanine—free. […] The MICs reported represent the lowest concentration of each compound necessary to inhibit bacterial growth and the MBCs represent the lowest concentration required to reduce the initial bacterial inoculum by ≥ 99.9%.

Mycobacterium smegmatis = assay: Broth microdilution MIC/MBC, Mycobacterium smegmatis; format: cell-based; conditions: Mycolicibacterium smegmatis, ATCC14468, M. Smegmatis ATCC 14468
P. aeruginosa = assay: Broth microdilution MIC, P. aeruginosa; format: cell-based; conditions: Pseudomonas aeruginosa
K. pneumoniae = assay: Broth microdilution MIC, K. pneumoniae; format: cell-based
Candida albicans = assay: MIC against Candida albicans; format: cell-based; conditions: table prints none, read-out: MIC
Acinetobacter baumannii = assay: MIC with/without sub-MIC colistin, Acinetobacter baumannii; format: cell-based
Experimental: (§1) The MIC of the rhodanines and control antibiotics, in the presence of a sub-inhibitory concentration of colistin or polymixin B nonapeptide (PMBN), against Gram-negative bacteria was evaluated as described before. The antibacterial activity of the rhodanines was further investigated against E. coli SM1411Δ acrAB, a strain that is deficient in the multidrug-resistant AcrAB efflux pump, as described before.

Escherichia coli O157:H7 [3] = assay: MIC with/without sub-MIC colistin, Escherichia coli O157:H7; format: cell-based
Experimental: as §1

Salmonella Typhimurium = assay: MIC with/without sub-MIC colistin, Salmonella Typhimurium; format: cell-based
Experimental: as §1

Klebsiella pneumoniae = assay: MIC with/without sub-MIC colistin, Klebsiella pneumoniae; format: cell-based
Experimental: as §1

Pseudomonas aeruginosa [4] = assay: MIC with/without sub-MIC colistin, Pseudomonas aeruginosa; format: cell-based
Experimental: as §1

Escherichia coli O157:H7 [5] = assay: MIC with/without PMBN, Escherichia coli O157:H7; format: cell-based
Experimental: as §1

Pseudomonas aeruginosa [6] = assay: MIC with/without PMBN, Pseudomonas aeruginosa; format: cell-based
Experimental: as §1

Escherichia coli Δ acrAB = assay: MIC against E. coli 1411 and AcrAB efflux pump deficient E. coli SM1411Δ acrAB; format: cell-based
Experimental: as §1

[7] = E. faecium HM 968 Strain ERV102
[8] = E. faecium NR31914 Strain E0120
[9] = E. faecium Patient #1–1 NR-31903
[10] = NRS201, B. cereus NRS 201 NR-2488

O=C(O)[C@H](Cc1ccccc1)N1C(=O)/C(=C/c2cccc(Oc3ccc(Cl)c(Cl)c3)c2)SC1=S [Rh 1]
MBC ([1]; E. faecium E417 HM-965): > 64 µM
MIC ([1]; E. faecium E417 HM-965): 8 µM (≈ 4.24 µg/mL)
MBC ([1]; E. faecium E1071 NR-28978): 64 µM (≈ 33.9 µg/mL)
MIC ([1]; E. faecium E1071 NR-28978): 8 µM (≈ 4.24 µg/mL)
MBC [1, 7]: 32 µM (≈ 17 µg/mL)
MIC [1, 7]: 8 µM (≈ 4.24 µg/mL)
MBC [1, 8]: 64 µM (≈ 33.9 µg/mL)
MIC [1, 8]: 8 µM (≈ 4.24 µg/mL)
MBC [1, 9]: 16 µM (≈ 8.49 µg/mL)
MIC [1, 9]: 4 µM (≈ 2.12 µg/mL)
MIC50 ([2]; 11 MRSA strains): 8 µM (≈ 4.24 µg/mL)
MIC90 ([2]; 11 MRSA strains): 8 µM (≈ 4.24 µg/mL)
MBC ([2]; MRSA NRS 1): 8 µM (≈ 4.24 µg/mL)
MIC ([2]; MRSA NRS 1): 8 µM (≈ 4.24 µg/mL)
MBC ([2]; MRSA NRS 19): 8 µM (≈ 4.24 µg/mL)
MIC ([2]; MRSA NRS 19): 8 µM (≈ 4.24 µg/mL)
MBC ([2]; MRSA NRS 37): 8 µM (≈ 4.24 µg/mL)
MIC ([2]; MRSA NRS 37): 8 µM (≈ 4.24 µg/mL)
MBC ([2]; MRSA NRS 107): 8 µM (≈ 4.24 µg/mL)
MIC ([2]; MRSA NRS 107): 8 µM (≈ 4.24 µg/mL)
MBC ([2]; MRSA NRS 119): 8 µM (≈ 4.24 µg/mL)
MIC ([2]; MRSA NRS 119): 8 µM (≈ 4.24 µg/mL)
MBC ([2]; MRSA NRS 382): 8 µM (≈ 4.24 µg/mL)
MIC ([2]; MRSA NRS 382): 8 µM (≈ 4.24 µg/mL)
MBC ([2]; MRSA NRS 383): 8 µM (≈ 4.24 µg/mL)
MIC ([2]; MRSA NRS 383): 8 µM (≈ 4.24 µg/mL)
MBC ([2]; MRSA NRS 384): 32 µM (≈ 17 µg/mL)
MIC ([2]; MRSA NRS 384): 8 µM (≈ 4.24 µg/mL)
MBC ([2]; MRSA NRS 385): 8 µM (≈ 4.24 µg/mL)
MIC ([2]; MRSA NRS 385): 8 µM (≈ 4.24 µg/mL)
MBC ([2]; MRSA NRS 386): 16 µM (≈ 8.49 µg/mL)
MIC ([2]; MRSA NRS 386): 8 µM (≈ 4.24 µg/mL)
MBC ([2]; MRSA NRS 387): 8 µM (≈ 4.24 µg/mL)
MIC ([2]; MRSA NRS 387): 8 µM (≈ 4.24 µg/mL)
MBC (B. cereus; B. cereus BAG1O-2 NR-28582): 4 µM (≈ 2.12 µg/mL)
MIC (B. cereus; B. cereus BAG1O-2 NR-28582): 4 µM (≈ 2.12 µg/mL)
MBC (B. cereus; B. cereus BAG1X1-1 NR-28575): 2 µM (≈ 1.06 µg/mL)
MIC (B. cereus; B. cereus BAG1X1-1 NR-28575): 2 µM (≈ 1.06 µg/mL)
MBC (B. cereus; B. cereus BAG1X2-1 NR-28578): 4 µM (≈ 2.12 µg/mL)
MIC (B. cereus; B. cereus BAG1X2-1 NR-28578): 4 µM (≈ 2.12 µg/mL)
MBC (B. cereus; B. cereus G9241 NR-9564): 4 µM (≈ 2.12 µg/mL)
MIC (B. cereus; B. cereus G9241 NR-9564): 4 µM (≈ 2.12 µg/mL)
MBC (B. cereus; B. cereus VD014 NR-22141): 4 µM (≈ 2.12 µg/mL)
MIC (B. cereus; B. cereus VD014 NR-22141): 4 µM (≈ 2.12 µg/mL)
MBC (B. cereus; B. cereus VD115 NR-22148): 4 µM (≈ 2.12 µg/mL)
MIC (B. cereus; B. cereus VD115 NR-22148): 4 µM (≈ 2.12 µg/mL)
MBC (B. cereus; B. cereus VD148 NR-22150): 4 µM (≈ 2.12 µg/mL)
MIC (B. cereus; B. cereus VD148 NR-22150): 4 µM (≈ 2.12 µg/mL)
MBC (B. cereus; [10]): 4 µM (≈ 2.12 µg/mL)
MIC (B. cereus; [10]): 4 µM (≈ 2.12 µg/mL)
MIC50 (Bacillus Strains): 4 µM (≈ 2.12 µg/mL)
MIC90 (Bacillus Strains): 4 µM (≈ 2.12 µg/mL)
MBC (Mycobacterium smegmatis; read-out: MBC): 8 µM (≈ 4.24 µg/mL)
MIC (Mycobacterium smegmatis; read-out: MIC): 4 µM (≈ 2.12 µg/mL)
MIC (P. aeruginosa; ATCC9721): > 128 µM
MIC (P. aeruginosa; ATCC15442): > 128 µM
MIC (K. pneumoniae; K. pneumoniae NR-15417): >128 µM
MIC (K. pneumoniae; Klebsiella pneumoniae): > 128 µM
MIC (Candida albicans; ATCC10231, C. albicans ATCC 10231, unit from abstract): > 64 µM
MIC (Candida albicans; C. albicans NR 29434, unit from abstract): > 64 µM
MIC (Candida albicans; C. albicans NR 29435, unit from abstract): > 64 µM
MIC (Candida albicans; C. albicans NR29437, unit from abstract): > 64 µM
MIC (Candida albicans; C. albicans NR29438, unit from abstract): > 64 µM
MIC (Candida albicans; C. albicans NR 29446, unit from abstract): > 64 µM
MIC (Candida albicans; C. albicans NR 29448, unit from abstract): > 64 µM
MIC (Candida albicans; C. albicans NR 29449, unit from abstract): > 64 µM
MIC (Candida albicans; C. albicans NR 29453, unit from abstract): > 64 µM
MIC (Candida albicans; C. albicans NR 294436, unit from abstract): > 64 µM
MIC (Acinetobacter baumannii; Acinetobacter baumannii ATCC BAA747, colistin (+) […], read-out: MIC): >64 µM
MIC (Acinetobacter baumannii; Acinetobacter baumannii ATCC BAA19606, colistin (+) […], read-out: MIC): >64 µM
MIC (Acinetobacter baumannii; Acinetobacter baumannii, ATCCBAA747): > 128 µM
MIC (Acinetobacter baumannii; Acinetobacter baumannii, ATCCBAA19606): > 128 µM
MIC (Escherichia coli O157:H7 [3]; Escherichia coli O157:H7 ATCC 35150, colistin (+) […], read-out: MIC): >64 µM
MIC (Escherichia coli O157:H7 [3]; Escherichia coli O157:H7 ATCC 700728, colistin (+) […], read-out: MIC): >64 µM
MIC (Escherichia coli O157:H7 [3]; Escherichia coli, ATCC35150): > 128 µM
MIC (Escherichia coli O157:H7 [3]; Escherichia coli, ATCC700728): > 128 µM
MIC (Salmonella Typhimurium; Salmonella Typhimurium ATCC 700720, colistin (+) […], read-out: MIC): >64 µM
MIC (Salmonella Typhimurium; Salmonella enterica, ATCC 700720 / TYPHIMURIUM): > 128 µM
MIC (Klebsiella pneumoniae; Klebsiella pneumoniae ATCC BAA 2146, colistin (+) […]): >64 µM
MIC (Klebsiella pneumoniae; Klebsiella pneumoniae, BAA2146): > 128 µM
MIC (Pseudomonas aeruginosa [4]; Pseudomonas aeruginosa ATCC 921, colistin (+) […], read-out: MIC): >64 µM
MIC (Pseudomonas aeruginosa [4]; Pseudomonas aeruginosa, ATCC921): > 128 µM
MIC (Escherichia coli O157:H7 [5]; Escherichia coli O157:H7 ATCC 35150, PMBN (+) 4 μg/mL, read-out: MIC): 8 µM (≈ 4.24 µg/mL)
MIC (Escherichia coli O157:H7 [5]; Escherichia coli O157:H7 ATCC 700728, PMBN (+) 4 μg/mL, read-out: MIC): >64 µM
MIC (Escherichia coli O157:H7 [5]; Escherichia coli, ATCC35150): > 256 µM
MIC (Escherichia coli O157:H7 [5]; Escherichia coli, ATCC700728): > 128 µM
MIC (Pseudomonas aeruginosa [6]; Pseudomonas aeruginosa ATCC 9721, PMBN (+) 4 μg/mL, read-out: MIC): >64 µM
MIC (Pseudomonas aeruginosa [6]; Pseudomonas aeruginosa, ATCC9721): > 128 µM
MIC (Escherichia coli Δ acrAB; E.coli 1411): > 64 µM
MIC (Escherichia coli Δ acrAB; E.coli 1411 SM (Δ acrAB, AcrAB efflux pump deficient)): > 64 µM
